Our source for the IC50 values is patent US12091425B2 (AMGEN INC., priority 2016, dated 2024).

The structures appear in SMILES notation.

The subject of test [1] is OPM-2 human multiple myeloma cell line. As to the kind of experiment: Cell Viability Assay (OPM-2 10 FBS). Conditions: OPM-2 cells, CellTiter-Glo. It is filed as cell-based. On the procedure: Cell Viability Assay (OPM-2 10 FBS)
Cells were seeded into 384-well plates at 3000 cells/well density in complete growth medium containing 10% FBS, and incubated for 16 h with serially diluted test compounds in a 37° C. incubator with 5% CO2. Cell viability was tested using CellTiter-Glo® assay (Promega, Madison, WI) according to the manufacturer recommendations. Luminescence was determined using an EnVision® Multilabel plate reader 25 min after the addition of detection reagent. IC50 values were then calculated with Xlfit using a logistical 4-parameter fit model in GraphPad Prism (GraphPad Software, San Diego, CA) or in Genedata Screener® (Genedata, Basel, Switzerland).
In general terms: Cellular ATP, detected with luciferase, serves as a proxy for viable cell number.

In test [2] the target is T1, Mcl-1/Bim interaction, recombinant human Mcl-1 (171-327) (Homo sapiens, UniProt Q07820).
T1 construct: made in house
As to the kind of experiment: Cell free Mcl-1: Bim Affinity Assay (Mcl-1 HTRF). The format is binding. The procedure, abridged:
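Compounds were mixed with the protein and a biotinylated Bim peptide spanning human residues 51-76. Plates were left overnight, then TR-FRET signal was measured. A four-parameter sigmoidal model applied to duplicate competition data gave IC50.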

The mark [3] stands for this setting: Homo sapiens, OPM-2, 16 h, 16 h.
The mark [4] stands for this setting: cell free Mcl-1:Bim TR-FRET, recombinant human Mcl-1 (171-327).
[5] abbreviates: Homo sapiens, OPM-2, 16 h, 16 h incubation.
Setting [6] is: TR-FRET, 0.1 nM Mcl-1 (171-327), 0.05 nM biotin-Bim (51-76).

T1 sequence (Q07820 171-327): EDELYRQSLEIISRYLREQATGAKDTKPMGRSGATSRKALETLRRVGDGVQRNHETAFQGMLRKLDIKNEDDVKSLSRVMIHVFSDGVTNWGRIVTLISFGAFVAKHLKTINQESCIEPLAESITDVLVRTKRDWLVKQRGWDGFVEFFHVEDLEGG

In general, IC50 refers to the concentration that gives 50% inhibition. Take `C[C@@H]1[C@@H](C)C/C=C/[C@H](OCCN2CCS(=O)(=O)CC2)[C@@H]2CC[C@H]2CN2C[C@@]3(CCCc4cc(Cl)ccc43)COc3ccc(cc32)C(=O)NS1(=O)=O` [Example 524, (1S,3′R,6′R,7′S,8′E,11′S,12′R)-6-chloro-7′-(2-(1,1-dioxido-4-thiomorpholinyl)ethoxy)-11′,12′-dimethyl-3,4-dihydro-2H,15′H-spiro[naphthalene-1,22′-[20]oxa[13]thia[1,14]diazatetracyclo[14.7.2.0^3,6.0^19,24]pentacosa [8,16,18,24]tetraen]-15′-one 13′,13′-dioxide]: the results for the IC50 in test [1] (setting [3]) and in test [2] (setting [4]) were 113 nM and 0.365 nM, respectively.
As for `COCCO[C@H]1/C=C/[C@@H](C)C[C@@H](C)S(=O)(=O)NC(=O)c2ccc3c(c2)N(C[C@@H]2CC[C@H]21)C[C@@]1(CCCc2cc(Cl)ccc21)CO3` [Example 1020, (1S,3′R,6′R,7′S,8′E,10′S,12′R)-6-chloro-7′-(2-methoxyethoxy)-10′,12′-dimethyl-3,4-dihydro-2H,15′H-spiro[naphthalene-1,22′-[20]oxa[13]thia[1,14]diazatetracyclo[14.7.2.0^3,6.0^19,24]pentacosa [8,16,18,24]tetraen]-15′-one 13′,13′-dioxide], the IC50 in test [1] (setting [5]) stood at 759 nM; in test [2] (setting [6]), 1.05 nM.
On to `O=C1NS(=O)(=O)[C@@H]2CCC[C@H]2C/C=C/[C@H](O)[C@@H]2CC[C@H]2CN2C[C@@]3(CCCc4cc(Cl)ccc43)COc3ccc1cc32` (single isomer, unassigned) [Example 325], for which the values for the IC50 in test [1] (16 h) and in test [2] (setting [6]) were 208 nM and 0.297 nM, respectively.
For `O=C1NS(=O)(=O)[C@@H]2CCC[C@@H](/C=C/[C@H](O)[C@@H]3CC[C@H]3CN3C[C@@]4(CCCc5cc(Cl)ccc54)COc4ccc1cc43)C2` (single isomer, unassigned) [Example 105] the same measures were 330 nM and 0.589 nM.
As to `COCCO[C@H]1/C=C/C[C@@H]2C[C@H]2S(=O)(=O)NC(=O)c2ccc3c(c2)N(C[C@@H]2CC[C@H]21)C[C@@]1(CCCc2cc(Cl)ccc21)CO3` (single isomer, unassigned) [Example 786], the IC50 in test [1] (16 h) stood at 1480 nM; in test [2] (setting [4]) it was 1.03 nM.
For `C[C@@H]1/C=C/[C@@H](O)[C@@H]2CC[C@H]2CN2C[C@@]3(CCCc4cc(Cl)ccc43)COc3ccc(cc32)C(=O)NS(=O)(=O)C[C@@H]1C` (single isomer, unassigned) [Example 1062], the figures for the IC50 in test [1] (16 h incubation) and in test [2] (setting [6]) were 12600 nM and 7.88 nM, respectively.
In the case of `COCCO[C@H]1/C=C\C[C@H](C)NS(=O)(=O)NC(=O)c2ccc3c(c2)N(C[C@@H]2CC[C@H]21)C[C@@]1(CCCc2cc(Cl)ccc21)CO3` (single isomer, unassigned) [Example 64], the IC50 in test [1] (setting [3]) was found to be 399 nM; in test [2] (setting [6]), 0.678 nM.
Take `O=C1NS(=O)(=O)N(CC2CCCO2)C/C=C/[C@H](O)[C@@H]2CC[C@H]2CN2C[C@@]3(CCCc4cc(Cl)ccc43)COc3ccc1cc32` (mixture of isomers) [Example 691]: the values for the IC50 in test [1] (setting [3]) and in test [2] (setting [4]) were 2330 nM and 1.81 nM, respectively.
In the case of `COCCO[C@H]1/C=C/C[C@H](C)[C@@H](CCOC)S(=O)(=O)NC(=O)c2ccc3c(c2)N(C[C@@H]2CC[C@H]21)C[C@@]1(CCCc2cc(Cl)ccc21)CO3` (single isomer, unassigned) [Example 397], the IC50 in test [1] (16 h) was 143 nM; in test [2] (setting [6]), 0.228 nM.
Turning to `C[C@@H]1[C@@H](C)C/C=C/C(=O)[C@@H]2CC[C@H]2CN2C[C@@]3(CCCc4cc(Cl)ccc43)COc3ccc(cc32)C(=O)NS1(=O)=O` [Example 349, (1S,3′R,6′R,8′E,11′S,12′R)-6-chloro-11′,12′-dimethyl-3,4-dihydro-2H,7′H,15′H-spiro[naphthalene-1,22′-[20]oxa[13]thia[1,14]diazatetracyclo[14.7.2.0^3,6.0^19,24]pentacosa [8,16,18,24]tetraene]-7′,15′-dione 13′,13′-dioxide], the figures for the IC50 in test [1] (setting [3]) and in test [2] (setting [6]) were 1050 nM and 3.83 nM, respectively.
Turning to `COCCCO[C@H]1/C=C/C[C@H](C)NS(=O)(=O)NC(=O)c2ccc3c(c2)N(C[C@@H]2CC[C@H]21)C[C@@]1(CCCc2cc(Cl)ccc21)CO3` (single isomer, unassigned) [Example 74], the IC50 in test [1] (setting [3]) turned out to be 381 nM; in test [2] (setting [6]), 1.13 nM.
`C[C@@H]1[C@@H](C)C/C=C/[C@H](OCCN2CCCCC2=O)[C@@H]2CC[C@H]2CN2C[C@@]3(CCCc4cc(Cl)ccc43)COc3ccc(cc32)C(=O)NS1(=O)=O` [Example 728, (1S,3′R,6′R,7′S,8′E,11′S,12′R)-6-chloro-11′,12′-dimethyl-7′-(2-(2-oxo-1-piperidinyl)ethoxy)-3,4-dihydro-2H,15′H-spiro[naphthalene-1,22′-[20]oxa[13]thia[1,14]diazatetracyclo[14.7.2.0^3,6.0^19,24]pentacosa [8,16,18,24]tetraen]-15′-one-13′, 13′-dioxide]: the IC50 in test [1] (setting [3]) was found to be 268 nM; in test [2] (setting [4]), 0.437 nM.
Consider `CC[C@@H]1C[C@@H](C)/C=C/[C@H](O)[C@@H]2CC[C@H]2CN2C[C@@]3(CCCc4cc(Cl)ccc43)COc3ccc(cc32)C(=O)NS1(=O)=O` (single isomer, unassigned) [Example 1023], for which the IC50 in test [1] (16 h incubation) came out at 501 nM; in test [2] (setting [6]) it was 0.307 nM.
Consider `O=C1NS(=O)(=O)C2CC2CC=CC(O)C2CCC2CN2CC3(CCCc4cc(Cl)ccc43)COc3ccc1cc32` (single isomer, unassigned) [Example 793], for which the results for the IC50 in test [1] (16 h) and in test [2] (setting [4]) were 536 nM and 0.44 nM, respectively.
In the case of `CC[C@@H]1CC/C=C/[C@H](OCC(=O)NCCN2CCOCC2)[C@@H]2CC[C@H]2CN2C[C@@]3(CCCc4cc(Cl)ccc43)COc3ccc(cc32)C(=O)NS1(=O)=O` [Example 1002, 2-(((1S,3′R,6′R,7′S,8′E,12′R)-6-chloro-12′-ethyl-13′,13′-dioxido-15′-oxo-3,4-dihydro-2H-spiro[naphthalene-1,22′-[20]oxa[13]thia[1,14]diazatetracyclo[14.7.2.0^3,6.0^19,24]pentacosa [8,16,18,24]tetraen]-7′-yl)oxy)-N-(2-(4-morpholinyl)ethyl)acetamide], the IC50 is 1220 nM in test [1] (setting [5]) and 0.448 nM in test [2] (setting [6]).
For the molecule `COC(=O)CC[C@]1(C)CC/C=C/[C@H](O)[C@@H]2CC[C@H]2CN2C[C@@]3(CCCc4cc(Cl)ccc43)COc3ccc(cc32)C(=O)NS1(=O)=O` (single isomer, unassigned) [Example 561], the IC50 worked out at 8470 nM in test [1] (16 h) and 3.58 nM in test [2] (setting [4]).
Take `C[C@@H]1[C@@H](C)/C=C/[C@H](O)[C@@H]2CC[C@H]2CN2C[C@@]3(CCCc4cc(Cl)ccc43)COc3ccc(cc32)C(=O)NS(=O)(=O)[C@H]1C` (single isomer, unassigned) [Example 1043]: the IC50 amounted to 6740 nM in test [1] (setting [5]) and 6.09 nM in test [2] (setting [6]).
Regarding `CC[C@@H]1[C@@H](OCCOC)C/C=C/[C@H](O)[C@@H]2CC[C@H]2CN2C[C@@]3(CCCc4cc(Cl)ccc43)COc3ccc(cc32)C(=O)NS1(=O)=O` (single isomer, unassigned) [Example 470], the results for the IC50 in test [1] (16 h) and in test [2] (setting [4]) were 355 nM and 0.726 nM, respectively.
Take `C[C@@H]1[C@@H](C)C/C=C/[C@H](OCCNc2ccccn2)[C@@H]2CC[C@H]2CN2C[C@@]3(CCCc4cc(Cl)ccc43)COc3ccc(cc32)C(=O)NS1(=O)=O` [Example 12, (1S,3′R,6′R,7′S,8′E,11′S,12′R)-6-chloro-11′,12′-dimethyl-7′-(2-(2-pyridinylamino)ethoxy)-3,4-dihydro-2H,15′H-spiro[naphthalene-1,22′-[20]oxa[13]thia[1,14]diazatetracyclo[14.7.2.0˜3,6˜.0˜19,24˜]pentacosa[8,16,18,24]tetraen]-15′-one 13′,13′-dioxide]: the IC50 was found to be 404 nM in test [1] (setting [3]) and 3.37 nM in test [2] (setting [6]).
For `COCCOCCN1CC/C=C/[C@H](O)[C@@H]2CC[C@H]2CN2C[C@@]3(CCCc4cc(Cl)ccc43)COc3ccc(cc32)C(=O)NS1(=O)=O` [Example 22, (1S,3′R,6′R,7′S,8′E)-6-chloro-7′-hydroxy-12′-(2-(2-methoxyethoxy)ethyl)-3,4-dihydro-2H,15′H-spiro[naphthalene-1,22′-[20]oxa[13]thia[1,12,14]triazatetracyclo[14.7.2.0^3,6.0^19,24]pentacosa[8,16,18,24]tetraen]-15′-one 13,13′-dioxide] the same measures were 276 nM and 0.37 nM.
In the case of `CC[C@@H]1CC/C=C/[C@H](OCc2cc(C)nn2C)[C@@H]2CC[C@H]2CN2C[C@@]3(CCCc4cc(Cl)ccc43)COc3ccc(cc32)C(=O)NS1(=O)=O` [Example 967, (1S,3′R,6′R,7′S,8′E,12′R)-6-chloro-7′-((1,3-dimethyl-1H-pyrazol-5-yl)methoxy)-12′-ethyl-3,4-dihydro-2H,15′H-spiro[naphthalene-1,22′-[20]oxa[13]thia[1,14]diazatetracyclo[14.7.2.0^3,6.0^19,24]pentacosa [8,16,18,24]tetraen]-15′-one 13′,13′-dioxide], the results for the IC50 in test [1] (setting [5]) and in test [2] (setting [6]) were 461 nM and 1.06 nM, respectively.
`CO[C@H]1/C=C/CC[C@@H](CCS(=O)(=O)C(C)(C)C)S(=O)(=O)NC(=O)c2ccc3c(c2)N(C[C@@H]2CC[C@H]21)C[C@@]1(CCCc2cc(Cl)ccc21)CO3` (single isomer, unassigned) [Example 156]: the IC50 turned out to be 266 nM in test [1] (16 h) and 0.831 nM in test [2] (setting [6]).
